Measurements: ChEMBL document CHEMBL3137667, “[Drug-induced liver injury; fourteenth updated edition of the bibliographic database of liver injuries and related drugs]” (Gastroenterol Clin Biol, 2004)

Experiments:
[1] = Highest frequency of moderate liver toxicity observed during clinical trials, expressed as a percentage. [column '% BIOL' in source]; settings: human
[2] = Highest frequency of acute liver toxicity observed during clinical trials, expressed as a percentage. [column '% AIGUE' in source]; settings: human
[3] = Presence of at least one case with successful reintroduction. [column 'REINT' in source]; settings: human
[4] = Comments (NB not yet translated). [column 'COMMENTAIRES' in source]; settings: human
[5] = Times to onset, minimal and maximal, observed in the indexed observations. [column 'DELAI' in source]; settings: human
[6] = Proposed mechanism(s) of liver damage. [column 'MEC' in source]; settings: human
[7] = human, serum
[8] = human, serum; remark: listed apart in the source
[9] = human
[10] = human; remark: listed apart in the source
[11] = human; remark: listed apart in the source
[12] = human, serum, 4383 h
[13] = human; remark: listed apart in the source
[14] = human; remark: listed apart in the source
[15] = human; remark: listed apart in the source
[16] = human; remark: listed apart in the source
[17] = human; remark: listed apart in the source
[18] = human; remark: listed apart in the source
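For Hepatotoxicity (association with vascular disease) in this document: count of indexed literature references reporting vascular liver injury in humans, e.g. peliosis hepatitis, hepatic veno-occlusive disease or Budd-Chiari syndrome.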
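For Hepatotoxicity (benign tumour) in this document: value is a count of indexed literature references citing a benign tumour confirmed by histopathology.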
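For Hepatotoxicity (choleostasis) in this document: human cholestatic liver injury, shown by histopathology or by peak ALT or AST elevation over alkaline phosphatase ratio below 2, value counts indexed literature reports.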
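For Hepatotoxicity (chronic liver disease) in this document: chronic liver injury confirmed by histopathology or persistently raised serum aminotransferase activity beyond 6 months, value given as the count of indexed literature references.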
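For Hepatotoxicity (cirrhosis) in this document: value is a count of indexed literature references reporting cirrhosis confirmed by histopathology.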
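For Hepatotoxicity (cytolytic) in this document: human cytolytic liver injury, shown by histopathology or by a ratio above 5 of peak ALT or AST elevation to alkaline phosphatase elevation, value counts indexed references.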
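For Hepatotoxicity (granulomatous hepatitis) in this document: value is a count of indexed literature references reporting granulomatous liver disease confirmed by histopathology.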
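For Hepatotoxicity (malignant tumour) in this document: malignant tumour confirmed by histopathology, value gives the count of indexed literature references reporting it.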
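For Hepatotoxicity (severe hepatitis) in this document: human clinical data: severe hepatitis, meaning potentially life-threatening liver failure or clinically observed cases, the value counts how many indexed literature references report it.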
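For Hepatotoxicity (steatosis) in this document: steatosis confirmed by histopathology, value is the count of indexed references.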

Compound | Hepatotoxicity (moderate) [1] [%] | Hepatotoxicity (acute) [2] [%] | Hepatotoxicity (successful reintroduction) [3] | Hepatotoxicity (comment) [4] | Hepatotoxicity (time to onset) [5] | Hepatotoxicity (mechanism) [6] | Hepatotoxicity (moderate) [7] | Hepatotoxicity (acute) [8] | Hepatotoxicity (cytolytic) [9] | Hepatotoxicity (choleostasis) [10] | Hepatotoxicity (severe hepatitis) [11] | Hepatotoxicity (chronic liver disease) [12] | Hepatotoxicity (cirrhosis) [13] | Hepatotoxicity (granulomatous hepatitis) [14] | Hepatotoxicity (association with vascular disease) [15] | Hepatotoxicity (steatosis) [16] | Hepatotoxicity (malignant tumour) [17] | Hepatotoxicity (benign tumour) [18] | Hepatotoxicity (moderate) ([1]; Liver) [%] | Hepatotoxicity (severe hepatitis) ([11]; Liver) | other results
CC1(C)S[C@@H]2[C@H](NC(=O)[C@H](N)c3ccc(O)cc3)C(=O)N2[C@H]1C(=O)O.O=C(O)[C@H]1/C(=C/CO)O[C@@H]2CC(=O)N21 | 15 | 0.3 | yes | CHOLANGITE #CBP AC_ANTI-N RC/ERYTHROMYCINE | < 1 day - 15 weeks | Allergic | 15 | 74 | 21 | 61 | 8 | 0 | 1 | 6 | 0 | 7 | 0 | 0 | – | – | –
CCC[N+]12[C@H](O)[C@@H](CC)[C@@H]3C[C@H]1[C@@H]1N(C)c4ccccc4[C@]14C[C@H]2C3[C@H]4O (some centres not stated) | 0 | 0 | yes | RC/QUINIDINE CHOLESTASE_PROLONGEE CHOLANGITE | 3 days - 4 months | Allergic | 0 | 15 | 3 | 14 | 0 | 2 | 0 | 2 | 0 | 0 | 0 | 0 | – | – | –
CCOC(=O)[C@H](CCc1ccccc1)N[C@@H](C)C(=O)N1CCC[C@H]1C(=O)O | 2.8 | 0 | yes | DUCTOPENIE RC/CAPTOPRIL | 10 days - 3 years | Allergic | 9 | 13 | 7 | 4 | 3 | 0 | 0 | 0 | 0 | 0 | 0 | 0 | – | – | –
COc1cc(Cc2cnc(N)nc2N)cc(OC)c1OC.Cc1cc(NS(=O)(=O)c2ccc(N)cc2)no1 [CO-TRIMOXAZOLE] | – | – | yes | RC/CEFADROXIL/SULFASALAZINE #CBP AC_ANTI-ML | 2 hours - 2 months | – | 46 | – | – | – | – | 3 | 0 | – | 0 | 1 | 0 | 0 | 53.8 | 11 | Hepatotoxicity (mechanism) ([6]; Liver): Allergic, Dose-dependant, Toxic Metabolite; Hepatotoxicity (cytolytic) ([9]; Liver): 17; Hepatotoxicity (choleostasis) ([10]; Liver): 35; Hepatotoxicity (granulomatous hepatitis) ([14]; Liver): 1
O=C1OCCN1/N=C/c1ccc([N+](=O)[O-])o1 [FURAZOLIDONE] | 0 | 0 | yes | RC/NITROFURANTOINE | – | Allergic | 1 | 3 | 1 | 3 | 0 | 0 | 0 | 0 | – | 0 | 0 | 0 | – | – | –
O=C(CCCN1CCC(O)(c2ccc(Cl)cc2)CC1)c1ccc(F)cc1 [HALOPERIDOL] | 35.1 | 0.8 | yes | RC/FLUPHENAZINE CHOLESTASE_PROLONGEE #CBP | 2 weeks - 5 months | Allergic | 12 | – | 4 | 8 | 0 | 1 | 0 | 0 | 0 | 0 | 0 | 0 | – | – | –
Clc1ccc(C(c2ccccc2Cl)C(Cl)Cl)cc1 (configuration not stated) [MITOTANE] | 0 | 0 | yes | INDUCTION_ENZYMATIQUE | – | Dose-dependant | 5 | 0 | 0 | 0 | 0 | 0 | 0 | 0 | 0 | 0 | 0 | 0 | – | – | –
CCCc1cc(=O)[nH]c(=S)[nH]1 [PROPYLTHIOURACIL] | – | – | yes | AC_ANTI-N/-M CHOLESTASE_PROLONGEE | 1 day - 1.3 years | – | 5 | – | – | – | – | 4 | 1 | – | 0 | 0 | 0 | 0 | 27.8 | 19 | Hepatotoxicity (mechanism) ([6]; Liver): Allergic, Reactive metabolite; Hepatotoxicity (cytolytic) ([9]; Liver): 31; Hepatotoxicity (choleostasis) ([10]; Liver): 15; Hepatotoxicity (granulomatous hepatitis) ([14]; Liver): 0
C=C[C@H]1C[N@@]2CC[C@H]1C[C@@H]2[C@@H](O)c1ccnc2ccc(OC)cc12 [QUINIDINE] | – | – | yes | RC/PRAJMALINE | 1 day - 7 months | Allergic | 5 | – | 12 | 12 | – | 1 | 0 | 11 | 0 | 0 | 0 | 0 | 2 | 2 | –
C=C[C@H]1C[N@@]2CC[C@H]1C[C@H]2[C@H](O)c1ccnc2ccc(OC)cc12 [QUININE] | – | – | yes | AC_ANTI-N | < 1 day - 2 years | Allergic | 2 | – | 3 | 2 | – | 0 | 0 | 4 | 0 | 0 | 0 | 0 | 15.4 | 0 | –
ALTEPLASE | 21.2 | 0 | yes | AGGRAVATION_MVO | 3 days - 4 days | – | 4 | 1 | 1 | 0 | 0 | 0 | 0 | 0 | 0 | 0 | 0 | 0 | – | – | –
STREPTOKINASE | 75 | 0 | yes | RUPTURE_HEPATIQUE | 1 day - 1 week | – | 12 | 9 | 5 | 3 | 0 | 0 | 0 | 0 | 0 | 0 | 0 | 0 | – | – | –
